Results published in BindingDB's records for doi:10.1007/s10822-022-00478-x (Roche Innovation Center Basel, F. Hoffmann-La Roche Ltd., 2022).

These molecules were tested against cAMP and cAMP-inhibited cGMP 3',5'-cyclic phosphodiesterase 10A (Homo sapiens, UniProt Q9Y233) (assay: PDE10A assay).
In short: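 Scintillation proximity readout of [3H]cGMP hydrolysis (50 nM final substrate, 15 min) by 2 ng/well human PDE10A after 15 min compound preincubation at RT, pH 7.5 with MgCl2. Four-parameter logistic fit gave IC50, reported as pIC50.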

Point of comparison: `Cn1cc(-c2ccccc2)nc1COc1ncc(C2CC2)nc1C(=O)NCc1ccccc1` [Roche-Dataset for PDE10A, Compound 59], IC50 57 nM. Against it:
- CC(=O)Nc1cccc(NC(=O)c2nc(C3CC3)cnc2Nc2cncnc2)c1 [Roche-Dataset for PDE10A, Compound 571] — 1.6-fold lower, 35 nM
- O=C(Nc1cncc(OC(F)F)c1)c1nc(C2CC2)cnc1Nc1cncnc1 [Roche-Dataset for PDE10A, Compound 855] — 2.4-fold higher, 134 nM
- Cn1cc(-c2ccccc2)nc1CCc1cncc(-c2ccn[nH]2)n1 [Roche-Dataset for PDE10A, Compound 289] — 5.4-fold higher, 307 nM
- COc1ccccc1-c1nc2cc(NC(=O)c3c(C(=O)O)cnn3C)ccn2n1 [Roche-Dataset for PDE10A, Compound 356] — 5.9-fold lower, 9.74 nM
- CCOc1cc(Cl)c(C)n2nc(CCc3nc(N4CCCC4)nn3C)nc12 [Roche-Dataset for PDE10A, Compound 266] — 95-fold lower, 0.6 nM
- CCN(C)C(=O)c1c(NC(=O)c2nc(C3CC3)cnc2Nc2cncnc2)cnn1C [US8703768, 203] — 2.3-fold lower, 25 nM
- O=C(c1ccccc1)N1CCN(C(=O)c2nc(C3CC3)cnc2Nc2cncnc2)CC1 [Roche-Dataset for PDE10A, Compound 1104] — 180-fold higher, 10000 nM
- CCCCc1cc(NC(=O)c2c(C(=O)N3CCC3)cnn2C)[nH]n1 [Roche-Dataset for PDE10A, Compound 985] — 86-fold higher, 4900 nM
- CS(=O)(=O)c1ccccc1NC(=O)c1nc(C2CC2)ccc1Nc1cncnc1 [Roche-Dataset for PDE10A, Compound 1071] — 2.1-fold lower, 27 nM
- Cc1ccccc1-c1cn2c(n1)C[C@H](NC(=O)c1c(C(=O)N3CCC3)cnn1C)CC2 [Roche-Dataset for PDE10A, Compound 495] — 7.3-fold lower, 7.85 nM
- CCCn1ccc(NC(=O)c2nc(C3CC3)ccc2Nc2cncnc2)n1 [Roche-Dataset for PDE10A, Compound 643] — 4.1-fold lower, 14 nM
- Cc1c(C(F)(F)F)nc2ccc(C#Cc3nc(N4CCCC4)n(C)n3)nn12 [3-Methyl-6-((1-methyl-5-(pyrrolidin-1-yl)-1H-1,2,4-triazol-3-yl)ethynyl)-2-(trifluoromethyl)imidazo[1,2-b]pyridazine] — 15-fold lower, 3.92 nM
- Cn1ncc(C(=O)N2CCC2)c1C(=O)Nc1ccn(CCN2CCOCC2)n1 [Roche-Dataset for PDE10A, Compound 1030] — 6.5-fold higher, 368 nM
- Cc1c(Cl)cc(Cl)c2nc(CCc3cn4ccccc4n3)nn12 [Roche-Dataset for PDE10A, Compound 663] — 6.1-fold lower, 9.41 nM
- COc1ccccc1-c1cn2c(n1)C[C@H](NC(=O)c1c(C(=O)N3CC(F)C3)cnn1C)CC2 [Roche-Dataset for PDE10A, Compound 379] — 13-fold lower, 4.41 nM
- COCc1cc(C(=O)Nc2ccn3nc(-c4ccccc4)nc3c2)n(C)n1 [Roche-Dataset for PDE10A, Compound 390] — 1.5-fold higher, 87 nM
- Cn1cc(-c2ccccc2)nc1/C=C/c1ccc2ccccc2n1 [Roche-Dataset for PDE10A, Compound 180] — 4.8-fold higher, 271 nM
- COc1cnc(C)n2nc(CCc3nc(N4CCCC4)nn3C)nc12 [Roche-Dataset for PDE10A, Compound 671] — 5.2-fold lower, 11 nM
- O=C(Nc1ccn2nc(-c3ccccc3)nc2c1)c1onc2ccc(Br)cc12 [Roche-Dataset for PDE10A, Compound 592] — 5.7-fold lower, 10 nM
- O=C(NCCS(=O)(=O)c1ccccc1)c1nc(C2CC2)cnc1Nc1cncnc1 [Roche-Dataset for PDE10A, Compound 746] — 61-fold higher, 3450 nM
- Cn1ncc(C(=O)N2CCC2)c1C(=O)Nc1ccn2nc(-c3cccc(OCF)c3)nc2c1 [Roche-Dataset for PDE10A, Compound 96] — 67-fold lower, 0.85 nM
- CCc1nc(C)c(C(=O)Nc2cc3nc(-c4ccccc4)[nH]c3cc2C(=O)O)o1 [Roche-Dataset for PDE10A, Compound 424] — 24-fold higher, 1340 nM
- CN(C)c1nc2cc(NC(=O)c3c(C(=O)O)cnn3C)ccn2n1 [Roche-Dataset for PDE10A, Compound 768] — 17-fold higher, 976 nM
- CC(=O)c1nn(C)cc1NC(=O)c1nc(C2CC2)cnc1Nc1cncnc1 [Roche-Dataset for PDE10A, Compound 1016] — within 1.5-fold, 49 nM
- Cn1ncc(C(=O)N2CCC2)c1C(=O)Nc1ccn(Cc2ccc(Cl)cc2)n1 [Roche-Dataset for PDE10A, Compound 970] — 2.1-fold higher, 120 nM
- Cc1c(Cl)cc(C(F)F)c2nc(CCc3nc(N4CCCC4)nn3C)nn12 [Roche-Dataset for PDE10A, Compound 187] — 34-fold lower, 1.67 nM
- Cc1ccc2nc(Cl)c(OCc3nc(-c4ccccc4)cn3C)nc2c1 [Roche-Dataset for PDE10A, Compound 540] — 11-fold lower, 5.06 nM
- Cc1ncc(C)n2nc(/C=C/c3nc(N4CCN(C(=O)OC(C)(C)C)CC4)nn3C)nc12 [Roche-Dataset for PDE10A, Compound 1119] — 7.1-fold higher, 402 nM
- Cc1nc(-c2ccccc2Cl)n2c3cc(Cl)ccc3c(=O)n(C)c12 [Roche-Dataset for PDE10A, Compound 987] — 8.7-fold lower, 6.54 nM
- Cn1ncc(C(=O)N2CCOCC2)c1C(=O)Nc1cc2nc(N3CCCC3)nn2cn1 [Roche-Dataset for PDE10A, Compound 426] — 11-fold lower, 5 nM
- O=C(Nc1cc(-c2cccc(Cl)n2)nn1CCO)c1nc(C2CC2)ccc1Nc1cncnc1 [US8470820, 24] — 40-fold lower, 1.41 nM
- O=C(NC1CCN(Cc2ccccc2)CC1)c1nc(C2CC2)cnc1Nc1cncnc1 [Roche-Dataset for PDE10A, Compound 823] — 89-fold higher, 5050 nM
- CCOC(=O)c1cnn(C)c1C(=O)Nc1ccn2nc(N(C)C)nc2c1 [Roche-Dataset for PDE10A, Compound 549] — 5.5-fold higher, 314 nM
- CNC(=O)c1c(NC(=O)c2nc(Cl)c(OC)nc2Nc2cncnc2)cnn1C [Roche-Dataset for PDE10A, Compound 1152] — 80-fold higher, 4550 nM
- O=C(Nc1cnccc1Cl)c1nc(C2CC2)ccc1Nc1cncnc1 [Roche-Dataset for PDE10A, Compound 995] — 2.7-fold lower, 21 nM
- Cn1ncc(C(=O)N2CCC2)c1C(=O)Nc1ccn(Cc2ccccc2)n1 [Roche-Dataset for PDE10A, Compound 950] — 2-fold higher, 116 nM
- O=C(NCCN1CCc2ccccc2C1=O)c1nc(C2CC2)cnc1Nc1cncnc1 [Roche-Dataset for PDE10A, Compound 451] — 10-fold higher, 574 nM
- Cc1ncc(C)n2nc(/C=C/c3nc(N4CC[C@@H](C)C4)nn3C)nc12 [Roche-Dataset for PDE10A, Compound 560] — 2.4-fold lower, 24 nM
- COc1nc(OCc2nc(-c3ccccc3)cn2C)nc2ccccc12 [Roche-Dataset for PDE10A, Compound 411] — within 1.5-fold, 61 nM
- CNC(=O)c1nn(C)cc1NC(=O)c1nc(C2CC2)ccc1N(C)c1cncnc1 [Roche-Dataset for PDE10A, Compound 1122] — 180-fold higher, 10000 nM
- COc1ncc(C2CC2)nc1C(=O)Nc1ccn2nc(-c3ccccc3)nc2c1 [Roche-Dataset for PDE10A, Compound 514] — 3.4-fold lower, 17 nM
- CC(C)Oc1cncc(NC(=O)c2nc(C3CC3)cnc2Nc2cncnc2)c1 [Roche-Dataset for PDE10A, Compound 816] — within 1.5-fold, 63 nM
- NS(=O)(=O)c1ccc(CNC(=O)c2nc(C3CC3)cnc2Nc2cncnc2)cc1 [Roche-Dataset for PDE10A, Compound 817] — 6.8-fold higher, 389 nM
- O=C1c2ccccc2C(=O)N1CCc1nc(-c2ccncc2)no1 [Roche-Dataset for PDE10A, Compound 570] — 210-fold higher, 11900 nM
- O=C(Nc1cn(Cc2ccccn2)cn1)c1nc(C2CC2)ccc1Nc1cncnc1 [Roche-Dataset for PDE10A, Compound 1036] — 1.9-fold higher, 110 nM
- Cc1c(Cl)cc(C(F)(F)F)c2nc(/C=C/c3nc(Br)nn3C)nn12 [Roche-Dataset for PDE10A, Compound 764] — 2-fold higher, 115 nM
- CCOC(=O)Cn1nc(-c2ccccn2)cc1NC(=O)c1nc(C2CC2)ccc1Nc1cncnc1 [US8470820, 15] — 15-fold lower, 3.74 nM
- CNC(=O)c1c(NC(=O)c2nc(C3CC3)cnc2Nc2cncnc2)cnn1CCC(F)(F)F [US8703768, 173] — 3-fold lower, 19 nM
- CNC(=O)c1cc2[nH]c(-c3ccccc3)nc2cc1NC(=O)c1c(C(=O)N2CCC2)cnn1C [Roche-Dataset for PDE10A, Compound 439] — within 1.5-fold, 69 nM
- Cn1ncc(S(C)(=O)=O)c1C(=O)Nc1ccc2cc(-c3ccccc3)nn2c1 [Roche-Dataset for PDE10A, Compound 410] — 3.1-fold higher, 179 nM
- COc1ncccc1C(=O)Nc1cc(-c2ccccn2)nn1C [Roche-Dataset for PDE10A, Compound 921] — 170-fold higher, 9730 nM
- CCOC(=O)c1cnn(C)c1C(=O)Nc1ccn2nc(-c3cccc(F)c3)nc2c1 [Roche-Dataset for PDE10A, Compound 175] — within 1.5-fold, 46 nM
- O=C(Nc1ccn2nc(-c3ccccc3)nc2c1)c1cc(Cl)nc(NC2CC2)c1 [Roche-Dataset for PDE10A, Compound 101] — 9.3-fold lower, 6.12 nM
- CCNC(=O)c1c(NC(=O)c2c(C(=O)N3CCC3)cnn2C)cnn1CC [Roche-Dataset for PDE10A, Compound 1076] — 34-fold higher, 1920 nM
- Cc1noc(C(=O)Nc2ccc3cc(-c4ccccc4)nn3c2)c1Br [Roche-Dataset for PDE10A, Compound 529] — 3.2-fold lower, 18 nM
- CCCNC(=O)c1cc(NC(=O)c2c(C(=O)N3CCC3)cnn2C)nn1C [Roche-Dataset for PDE10A, Compound 871] — 180-fold higher, 10000 nM
- Cc1ncc(C)n2nc(/C=C/c3nc(Br)cn3-c3ccccc3)nc12 [Roche-Dataset for PDE10A, Compound 648] — 3.5-fold higher, 202 nM
- CCc1cnc(C)n2nc(CCc3nc(N4CCCC4)nn3C)nc12 [Roche-Dataset for PDE10A, Compound 584] — 20-fold lower, 2.86 nM
- CN(C)C(=O)Cn1cc(NC(=O)c2nc(C3CC3)cnc2Nc2cncnc2)cn1 [Roche-Dataset for PDE10A, Compound 787] — 12-fold higher, 671 nM
- CCn1nccc1C(=O)Nc1cc2nc(-c3ccccc3)[nH]c2cc1C(=O)NC [Roche-Dataset for PDE10A, Compound 482] — 5.2-fold lower, 11 nM
- O=C(NCCCN1CCCC1=O)c1nc(C2CC2)cnc1Nc1cncnc1 [Roche-Dataset for PDE10A, Compound 795] — 19-fold higher, 1110 nM
- Cn1ncc(C(=O)N2CCC2)c1C(=O)Nc1ccn2nc(-c3ccccc3OCCCF)nc2c1 [Roche-Dataset for PDE10A, Compound 11] — 190-fold lower, 0.3 nM
- Cc1nc2ccc(CCc3nc(-c4ccccc4)cn3C)nn2c1CO [US10399985, Example 15] — 2.7-fold lower, 21 nM
